{
  "source": "patent US9187465B2",
  "about": "“Oxazole tyrosine kinase inhibitors” (Sareum Limited, priority 2007, dated 2015)",
  "note": "Structures can show the parent of a compound that is named as a salt.",
  "data": [
    {"molecular_target": "T1, human Aurora A (Homo sapiens, UniProt O14965)", "T1 construct": "Histidine tag (N); host or cells: Sf9 insect cells (baculovirus)", "T1 sequence (O14965 1-403)": "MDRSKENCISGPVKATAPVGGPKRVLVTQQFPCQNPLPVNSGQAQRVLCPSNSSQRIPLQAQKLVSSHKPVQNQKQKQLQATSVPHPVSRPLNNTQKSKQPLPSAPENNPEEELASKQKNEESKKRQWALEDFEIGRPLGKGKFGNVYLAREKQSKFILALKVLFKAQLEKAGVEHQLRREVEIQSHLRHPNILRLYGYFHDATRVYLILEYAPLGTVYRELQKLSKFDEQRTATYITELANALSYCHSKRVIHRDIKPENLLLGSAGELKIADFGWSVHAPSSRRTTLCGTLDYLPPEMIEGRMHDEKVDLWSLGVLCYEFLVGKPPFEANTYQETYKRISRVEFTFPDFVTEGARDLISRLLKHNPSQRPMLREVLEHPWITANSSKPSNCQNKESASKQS", "assay": "Aurora A kinase assay (DELFIA enzyme inhibition)", "type": "biochemical", "settings": "read-out: Aurora A IC50", "procedure": "The protein was purified by one-step affinity chromatography using nickel-agarose […]\nAssay reactions are set up in a 25 uL final volume on a 96 well plate. […] The reaction is allowed to proceed for 30 minutes at room temperature before stopping with 100 μL Stop solution comprising of 100 mM EDTA, 1×BSA blocker in TBS (Perbio) and 0.05% Surfact-Amps20 (Perbio).\nThe stopped reaction is transferred to a black 96-well Neutravidin-coated plate (Perbio) and incubated for 30 minutes to capture the biotinylated peptide substrate. […] After repeating the washing step, the plate is further incubated for one hour with Europium-labelled anti-rabbit antibody (Perkin Elmer AD0105). The wash step is repeated for a final time before DELFIA Enhancement solution (Perkin Elmer) is added to all wells for 5 minutes and the fluorescence measured on a plate reader Analyst HT (Molecular Devices).", "units": {"IC50": "µM"}, "values": [
      {"smiles": "NC(=O)c1[nH]c(-c2c(F)cccc2F)nc1-c1ccccc1F", "note": "[Example A-18, 2-(2,6-difluorophenyl)-4-(2-fluorophenyl)-1H-imidazole-5-carboxamide]", "IC50": "< 10"},
      {"smiles": "NC(=O)c1nc(-c2c(F)cccc2F)oc1-c1cccc2ccccc12", "note": "[Example F-35, 2-(2,6-difluorophenyl)-5-(naphthalen-1-yl)oxazole-4-carboxamide]", "IC50": "< 100"},
      {"smiles": "NC(=O)c1nc(-c2c(F)cccc2F)oc1-c1cccc2[nH]ccc12", "note": "[Example F-36, 2-(2,6-difluorophenyl)-5-(1H-indol-4-yl)oxazole-4-carboxamide]", "IC50": "< 100"},
      {"smiles": "NC(=O)c1nc(-c2c(F)cccc2F)oc1-c1cccc2cccnc12", "note": "[Example F-37, 2-(2,6-difluorophenyl)-5-(quinolin-8-yl)oxazole-4-carboxamide]", "IC50": "< 100"},
      {"smiles": "COc1ccc(-c2oc(-c3ccccc3C(N)=O)nc2C(N)=O)cc1", "note": "[Example M-6, 2-(2-carbamoylphenyl)-5-(4-methoxyphenyl)oxazole-4-carboxamide]", "IC50": "< 100"}
    ]},
    {"molecular_target": "T2, human FLT4 (Homo sapiens, UniProt P35916)", "T2 construct": "a construct expressing the human FLT4 (789-1207) with an amino terminal GST tag; host or cells: Sf9 insect cells (baculovirus)", "T2 sequence (P35916 789-1207)": "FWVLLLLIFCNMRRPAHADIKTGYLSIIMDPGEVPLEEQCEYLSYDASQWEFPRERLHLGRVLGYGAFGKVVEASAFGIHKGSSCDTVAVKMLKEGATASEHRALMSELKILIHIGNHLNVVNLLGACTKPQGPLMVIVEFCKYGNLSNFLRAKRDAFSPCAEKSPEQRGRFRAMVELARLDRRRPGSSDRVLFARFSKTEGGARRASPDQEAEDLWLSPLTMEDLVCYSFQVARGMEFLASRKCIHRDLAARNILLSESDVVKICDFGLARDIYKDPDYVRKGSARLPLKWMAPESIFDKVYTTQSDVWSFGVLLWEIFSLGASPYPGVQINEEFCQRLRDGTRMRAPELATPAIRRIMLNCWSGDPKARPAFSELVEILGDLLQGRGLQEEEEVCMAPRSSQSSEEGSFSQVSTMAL", "assay": "FLT4 kinase assay (DELFIA enzyme inhibition)", "type": "biochemical", "settings": "read-out: FLT4 IC50", "procedure": "A GST-kinase fusion protein of 70 KDa was produced using sf9 baculovirus expression system, with a construct expressing the human FLT4 (789-1207) with an amino terminal GST tag. The protein was purified by affinity chromatography using glutathione-agarose followed by separation on a gel filtration column.\nFLT4 enzyme activity is determined using a Dissociation Enhanced Lanthanide Fluorescent Immunoassay (DELFIA) with a peptide substrate derived from the MET (Tyr 1253) peptide […] with a core sequence […].\nThe amount of phosphorylated peptide produced is detected by means of a phospho-Tyrosine specific Europium-labelled antibody using Time-Resolved Fluorescence at Excitation 360-35 nm and Emission 620-35 nm.\nAssay reactions are set up in a 25 uL final volume on a 96 well plate. […] The reaction is allowed to proceed for 30 minutes at room temperature before stopping with 100 uL Stop solution comprising of 100 mM EDTA, 1×BSA blocker in TBS (Perbio) and 0.05% Surfact-Amps20 (Perbio).\nThe stopped reaction is transferred to a black 96-well Neutravidin-coated plate (Perbio) and incubated for 30 minutes to capture the biotinylated peptide substrate. After washing wells 3 times with 200 uL TBS/T buffer, Anti-Phospho-Tyr-100 antibody labelled with Eu—N1 (Perkin Elmer AD0159) is added to all wells for 60 minutes at room temperature. After a repeat washing step, DELFIA Enhancement solution (Perkin Elmer) is added to all wells for 5 minutes and the fluorescence measured on a plate reader Analyst HT (Molecular Devices).\nThe % inhibition of the activity is calculated and plotted in order to determine the concentration of test compound required to inhibit 50% of the enzyme activity (IC50).", "units": {"IC50": "µM"}, "values": [
      {"smiles": "COc1ccc(-c2nc(-c3ccccc3)[nH]c2C(N)=O)cc1", "note": "[Example A-1, 4-(4-methoxyphenyl)-2-phenyl-1H-imidazole-5-carboxamide]", "IC50": "< 100"},
      {"smiles": "COc1ccc(-c2nc(-c3ccc(Br)cc3F)[nH]c2C(N)=O)cc1", "note": "[Example A-9, 2-(4-bromo-2-fluorophenyl)-4-(4-methoxyphenyl)-1H-imidazole-5-carboxamide]", "IC50": "< 100"},
      {"smiles": "COc1ccc(-c2nc(-c3cc(OC)cc(OC)c3)[nH]c2C(N)=O)cc1", "note": "[Example A-17, 2-(3,5-dimethoxyphenyl)-4-(4-methoxyphenyl)-1H-imidazole-5-carboxamide]", "IC50": "< 100"},
      {"smiles": "NC(=O)c1[nH]c(-c2c(F)cccc2F)nc1-c1ccccc1", "note": "[Example A-19, 2-(2,6-difluorophenyl)-4-phenyl-1H-imidazole-5-carboxamide]", "IC50": "< 100"},
      {"smiles": "COc1cccc(-c2nc(-c3c(F)cccc3F)[nH]c2C(N)=O)c1", "note": "[Example A-20, 2-(2,6-difluorophenyl)-4-(3-methoxyphenyl)-1H-imidazole-5-carboxamide]", "IC50": "< 100"},
      {"smiles": "COc1ccc(-c2nc(-c3c(F)cccc3F)oc2C(N)=O)cc1", "note": "[Example D-1, 2-(2,6-difluorophenyl)-4-(4-methoxyphenyl)oxazole-5-carboxamide]", "IC50": "< 10"},
      {"smiles": "NC(=O)c1nc(-c2c(F)cccc2F)oc1-c1cccs1", "note": "[Example E-1, 2-(2,6-difluorophenyl)-5-(thiophen-2-yl)oxazole-4-carboxamide]", "IC50": "< 10"},
      {"smiles": "NC(=O)c1nc(-c2c(F)cccc2F)oc1-c1ccccc1", "note": "[Example F-1, 2-(2,6-difluorophenyl)-5-phenyloxazole-4-carboxamide]", "IC50": "< 10"},
      {"smiles": "NC(=O)c1nc(-c2c(F)cccc2F)oc1-c1ccc(N2CCOCC2)cc1", "note": "[Example F-4, 2-(2,6-difluorophenyl)-5-(4-morpholinophenyl)oxazole-4-carboxamide]", "IC50": "< 10"},
      {"smiles": "CS(=O)(=O)c1ccc(-c2oc(-c3c(F)cccc3F)nc2C(N)=O)cc1", "note": "[Example F-6, 2-(2,6-difluorophenyl)-5-(4-(methylsulfonyl)phenyl)oxazole-4-carboxamide]", "IC50": "< 10"},
      {"smiles": "NC(=O)c1nc(-c2c(F)cccc2F)oc1-c1ccc(CN2CCOCC2)cc1", "note": "[Example F-20, 2-(2,6-difluorophenyl)-5-(4-(morpholinomethyl)phenyl)oxazole-4-carboxamide]", "IC50": "< 100"},
      {"smiles": "NC(=O)c1nc(-c2c(F)cccc2F)oc1-c1ccc(S(N)(=O)=O)cc1", "note": "[Example F-21, 5-(4-benzenesulfonamide)-2-(2,6-difluorophenyl)oxazole-4-carboxamide]", "IC50": "< 10"},
      {"smiles": "COc1ccc(-c2oc(-c3c(F)cccc3F)nc2C(N)=O)cc1OC", "note": "[Example F-28, 2-(2,6-difluorophenyl)-5-(3,4-dimethoxyphenyl)oxazole-4-carboxamide]", "IC50": "< 10"},
      {"smiles": "NC(=O)c1nc(-c2c(F)cccc2F)oc1-c1ccc2c(c1)OCO2", "note": "[Example F-29, 5-(benzo[d][1,3]dioxol-5-yl)-2-(2,6-difluorophenyl)oxazole-4-carboxamide]", "IC50": "< 100"},
      {"smiles": "NC(=O)c1nc(-c2c(F)cccc2F)oc1-c1cccc(C(=O)N2CCOCC2)c1", "note": "[Example F-30, 2-(2,6-Difluorophenyl)-5-(3-(morpholine-4-carbonyl)phenyl)oxazole-4-carboxamide]", "IC50": "< 10"},
      {"smiles": "NC(=O)c1nc(-c2c(F)cccc2F)oc1-c1ccc(CNS(=O)(=O)c2ccc(F)cc2)cc1", "note": "[Example K-1, 2-(2,6-difluorophenyl)-5-(4-((4-fluorophenylsulfonamido)methyl)phenyl)oxazole-4-carboxamide]", "IC50": "< 10"},
      {"smiles": "NC(=O)c1nc(-c2c(F)cccc2F)oc1-c1ccc(CNS(=O)(=O)c2ccccc2)cc1", "note": "[Example K-2, 2-(2,6-difluorophenyl)-5-(4-(phenylsulfonamidomethyl)phenyl)oxazole-4-carboxamide]", "IC50": "< 10"},
      {"smiles": "NC(=O)c1nc(-c2c(F)cccc2F)oc1-c1ccc(CNC(=O)c2ccccc2)cc1", "note": "[Example L-1, 5-(4-(benzamidomethyl)phenyl)-2-(2,6-difluorophenyl)oxazole-4-carboxamide]", "IC50": "< 10"},
      {"smiles": "NC(=O)c1nc(-c2c(F)cccc2F)oc1-c1ccc(CNC(=O)c2cccs2)cc1", "note": "[Example L-3, 2-(2,6-difluorophenyl)-5-(4-((thiophene-2-carboxamido)methyl)phenyl)oxazole-4-carboxamide]", "IC50": "< 10"},
      {"smiles": "COc1ccc(-c2oc(-c3cccs3)nc2C(N)=O)cc1", "note": "[Example M-1, 5-(4-methoxyphenyl)-2-(thiophen-2-yl)oxazole-4-carboxamide]", "IC50": "< 10"},
      {"smiles": "COc1ccc(-c2oc(-c3ccsc3)nc2C(N)=O)cc1", "note": "[Example M-5, 5-(4-methoxyphenyl)-2-(thiophen-3-yl)oxazole-4-carboxamide]", "IC50": "< 10"},
      {"smiles": "NC(=O)c1nc(-c2c(F)cccc2F)oc1-n1cnc2ccccc21", "note": "[Example Q-38, 5-(1H-benzo[d]imidazol-1-yl)-2-(2,6-difluorophenyl)oxazole-4-carboxamide]", "IC50": "< 10"},
      {"smiles": "COc1cc(Nc2oc(-c3c(F)cccc3F)nc2C(N)=O)cc(OC)c1OC", "note": "[Example Q-40, 2-(2,6-difluorophenyl)-5-(3,4,5-trimethoxyphenylamino)oxazole-4-carboxamide]", "IC50": "< 10"},
      {"smiles": "NC(=O)c1nc(Nc2cn[nH]c2)oc1-c1ccc(N2CCNCC2)cc1", "note": "[Example R-19, 2-(1H-pyrazol-4-ylamino)-5-(4-(piperazin-1-yl)phenyl)oxazole-4-carboxamide]", "IC50": "< 10"},
      {"smiles": "NC(=O)c1nc(-c2c(F)cccc2F)oc1Nc1ccc(N)cc1", "note": "[Example V-1, 5-(4-aminophenylamino)-2-(2,6-difluorophenyl)oxazole-4-carboxamide]", "IC50": "< 10"},
      {"smiles": "NC(=O)c1nc(-c2c(F)cccc2F)oc1-c1cccc(CN2CCOCC2)c1", "note": "[Example X-1, 2-(2,6-Difluorophenyl)-5-(3-(morpholinomethyl)phenyl)oxazole-4-carboxamide]", "IC50": "< 100"},
      {"smiles": "NC(=O)c1nc(-c2c(F)cccc2F)oc1-c1cccc(CN2CCNC(=O)C2)c1", "note": "[Example X-2, 2-(2,6-Difluorophenyl)-5-(3-((3-oxopiperazin-1-yl)methyl)phenyl)oxazole-4-carboxamide]", "IC50": "< 100"},
      {"smiles": "NC(=O)c1nc(-c2c(F)cccc2F)oc1-c1cccc(CN2CCNCC2)c1", "note": "[Example X-3, 2-(2,6-Difluorophenyl)-5-(3-(piperazin-1-ylmethyl)phenyl)oxazole-4-carboxamide formate salt]", "IC50": "< 100"},
      {"smiles": "NCC1CN(Cc2cccc(-c3oc(-c4c(F)cccc4F)nc3C(N)=O)c2)CCO1", "note": "(stereo not shown) [Example X-4, 5-(3-((2-(Aminomethyl)morpholino)methyl)phenyl)-2-(2,6-difluorophenyl)oxazole-4-carboxamide formate salt]", "IC50": "< 100"}
    ]}
  ]
}
